Common to all, as to format: cell-based
Common to all, as to conditions: 16 h treatment, EGFR degradation by HTRF
(In general: TR-FRET usually uses a lanthanide donor and a delayed reading to cut background.)

The target of assay [1] is T1, EGFR (Homo sapiens, UniProt P00533, L858R/T790M).
T1 construct: endogenous in cells; host or cells: H1975
The assay is described as follows: Cell Degradation 1: EGFR degradation in H1975 cells, HTRF assay. The essentials: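 H1975 cells treated with compound for 16 h, lysed 1 h at room temperature. EGFR measured by HTRF after overnight antibody incubation (665/620 nm). DC50 from four-parameter logistic fit of percent inhibition against concentration.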

For assay [2], the target named is T2, EGFR (Homo sapiens, UniProt P00533, DEL746-750).
T2 construct: endogenous in cells; host or cells: HCC827
The assay is described as follows: Cell Degradation 2: EGFR degradation in HCC827 cells, HTRF assay. The essentials: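 Compound-treated HCC827 cells were lysed after 16 h and EGFR measured by HTRF (337 nm excitation, 665/620 nm emission) after overnight antibody incubation at room temperature. DC50 came from a four-parameter fit of percent inhibition against compound concentration.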

Another assay deals with EGFR DTC. The assay is described as follows: Cell Degradation 3: EGFR degradation in BaF3 cells (DTC), HTRF assay. The essentials:
(§1)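 BaF3 cells expressing EGFR (LTC triple mutant C797S/L858R/T790M or DTC) exposed to compounds for 16 h, 8 doses from 4-fold dilution, 0.2% DMSO. Residual EGFR quantified by HTRF in lysates (triple mutant lysate diluted 1:1); DC50 from four-parameter logistic fit.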

The target in another assay is T3, EGFR LTC (Homo sapiens, UniProt P00533, C797S/L858R/T790M).
T3 construct: expressed in transfected cells; host or cells: BaF3
Description: Cell Degradation 3: EGFR degradation in BaF3 cells (LTC), HTRF assay. The essentials: as §1

Usually DC50 stands for the concentration at which degradation of the target reaches its halfway point.

T2 sequence (P00533 with tags, fused parts or gaps DEL746-750): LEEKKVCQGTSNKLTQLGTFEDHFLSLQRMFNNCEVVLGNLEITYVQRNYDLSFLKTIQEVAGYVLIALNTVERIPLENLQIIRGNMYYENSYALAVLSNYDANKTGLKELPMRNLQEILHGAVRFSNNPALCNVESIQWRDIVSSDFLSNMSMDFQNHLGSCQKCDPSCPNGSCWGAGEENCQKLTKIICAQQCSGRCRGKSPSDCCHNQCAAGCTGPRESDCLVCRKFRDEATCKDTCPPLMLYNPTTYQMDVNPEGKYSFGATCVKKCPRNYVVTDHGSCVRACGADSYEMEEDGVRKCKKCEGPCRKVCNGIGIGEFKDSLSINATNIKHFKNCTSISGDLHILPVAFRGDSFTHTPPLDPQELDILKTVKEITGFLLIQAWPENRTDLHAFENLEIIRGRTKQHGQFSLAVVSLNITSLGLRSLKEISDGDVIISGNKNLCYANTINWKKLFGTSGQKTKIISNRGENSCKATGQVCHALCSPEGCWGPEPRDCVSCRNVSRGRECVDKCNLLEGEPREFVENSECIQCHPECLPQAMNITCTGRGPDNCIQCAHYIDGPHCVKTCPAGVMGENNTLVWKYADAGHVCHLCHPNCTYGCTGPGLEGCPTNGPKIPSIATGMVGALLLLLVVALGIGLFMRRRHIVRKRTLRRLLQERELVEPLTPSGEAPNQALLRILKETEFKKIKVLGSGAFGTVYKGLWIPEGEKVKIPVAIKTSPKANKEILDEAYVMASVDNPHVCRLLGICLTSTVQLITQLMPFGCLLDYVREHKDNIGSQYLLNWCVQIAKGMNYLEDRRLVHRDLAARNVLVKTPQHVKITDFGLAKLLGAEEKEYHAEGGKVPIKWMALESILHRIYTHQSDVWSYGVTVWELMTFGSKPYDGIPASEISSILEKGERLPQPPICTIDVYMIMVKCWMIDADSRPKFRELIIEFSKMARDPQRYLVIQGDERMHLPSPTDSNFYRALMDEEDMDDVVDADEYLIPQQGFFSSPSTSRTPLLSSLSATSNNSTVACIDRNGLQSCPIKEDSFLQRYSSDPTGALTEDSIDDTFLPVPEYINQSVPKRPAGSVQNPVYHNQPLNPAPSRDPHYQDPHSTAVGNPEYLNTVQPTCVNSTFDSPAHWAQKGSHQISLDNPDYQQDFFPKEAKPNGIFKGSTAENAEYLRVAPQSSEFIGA
T2 sequence (Q96SW2 whole entry partner): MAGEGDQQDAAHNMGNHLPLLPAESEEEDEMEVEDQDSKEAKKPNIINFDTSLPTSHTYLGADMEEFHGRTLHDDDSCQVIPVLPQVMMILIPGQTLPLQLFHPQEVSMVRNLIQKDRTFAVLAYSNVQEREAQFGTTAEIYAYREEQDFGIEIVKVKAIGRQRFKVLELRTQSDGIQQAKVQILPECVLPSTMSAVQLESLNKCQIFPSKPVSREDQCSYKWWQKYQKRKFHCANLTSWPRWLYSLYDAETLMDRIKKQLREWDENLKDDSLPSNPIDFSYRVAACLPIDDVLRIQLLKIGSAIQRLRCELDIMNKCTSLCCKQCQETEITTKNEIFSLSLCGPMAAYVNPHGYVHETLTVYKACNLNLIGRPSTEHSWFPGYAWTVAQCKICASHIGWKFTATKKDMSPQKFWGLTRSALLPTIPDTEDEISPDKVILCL
T1 sequence (P00533 25-1210 T790M/L858R): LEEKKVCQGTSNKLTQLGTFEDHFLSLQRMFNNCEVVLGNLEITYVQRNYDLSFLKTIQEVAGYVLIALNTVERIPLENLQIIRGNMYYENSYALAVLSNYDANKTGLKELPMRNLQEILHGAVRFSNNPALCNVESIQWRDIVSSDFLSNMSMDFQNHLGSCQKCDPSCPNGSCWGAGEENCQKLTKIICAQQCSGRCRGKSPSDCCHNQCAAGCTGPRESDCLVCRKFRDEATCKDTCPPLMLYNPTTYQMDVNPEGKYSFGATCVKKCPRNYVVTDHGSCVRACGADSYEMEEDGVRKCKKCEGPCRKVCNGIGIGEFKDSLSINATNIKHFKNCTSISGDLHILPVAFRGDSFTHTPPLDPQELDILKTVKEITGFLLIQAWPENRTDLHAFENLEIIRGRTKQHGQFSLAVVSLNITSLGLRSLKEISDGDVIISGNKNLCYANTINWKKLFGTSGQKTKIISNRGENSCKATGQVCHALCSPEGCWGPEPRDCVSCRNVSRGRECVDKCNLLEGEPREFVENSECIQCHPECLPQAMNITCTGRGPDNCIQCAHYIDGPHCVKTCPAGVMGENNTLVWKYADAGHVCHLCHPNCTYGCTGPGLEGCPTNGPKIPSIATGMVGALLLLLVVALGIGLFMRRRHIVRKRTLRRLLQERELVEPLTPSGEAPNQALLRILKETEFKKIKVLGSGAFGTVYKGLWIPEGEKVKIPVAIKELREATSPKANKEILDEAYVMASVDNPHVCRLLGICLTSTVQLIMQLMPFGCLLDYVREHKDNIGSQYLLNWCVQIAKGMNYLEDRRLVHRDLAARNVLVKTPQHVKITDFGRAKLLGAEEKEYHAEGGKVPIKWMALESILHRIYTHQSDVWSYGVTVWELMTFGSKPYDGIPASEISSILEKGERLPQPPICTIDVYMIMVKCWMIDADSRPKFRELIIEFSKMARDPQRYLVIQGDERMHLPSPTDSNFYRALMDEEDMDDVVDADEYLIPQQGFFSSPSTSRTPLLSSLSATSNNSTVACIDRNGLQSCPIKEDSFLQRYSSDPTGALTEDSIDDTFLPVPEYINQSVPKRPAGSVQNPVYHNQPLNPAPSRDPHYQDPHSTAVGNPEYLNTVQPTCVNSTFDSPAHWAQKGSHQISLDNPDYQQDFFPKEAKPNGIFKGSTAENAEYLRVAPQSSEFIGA
T3 sequence (P00533 25-1210 T790M/C797S/L858R): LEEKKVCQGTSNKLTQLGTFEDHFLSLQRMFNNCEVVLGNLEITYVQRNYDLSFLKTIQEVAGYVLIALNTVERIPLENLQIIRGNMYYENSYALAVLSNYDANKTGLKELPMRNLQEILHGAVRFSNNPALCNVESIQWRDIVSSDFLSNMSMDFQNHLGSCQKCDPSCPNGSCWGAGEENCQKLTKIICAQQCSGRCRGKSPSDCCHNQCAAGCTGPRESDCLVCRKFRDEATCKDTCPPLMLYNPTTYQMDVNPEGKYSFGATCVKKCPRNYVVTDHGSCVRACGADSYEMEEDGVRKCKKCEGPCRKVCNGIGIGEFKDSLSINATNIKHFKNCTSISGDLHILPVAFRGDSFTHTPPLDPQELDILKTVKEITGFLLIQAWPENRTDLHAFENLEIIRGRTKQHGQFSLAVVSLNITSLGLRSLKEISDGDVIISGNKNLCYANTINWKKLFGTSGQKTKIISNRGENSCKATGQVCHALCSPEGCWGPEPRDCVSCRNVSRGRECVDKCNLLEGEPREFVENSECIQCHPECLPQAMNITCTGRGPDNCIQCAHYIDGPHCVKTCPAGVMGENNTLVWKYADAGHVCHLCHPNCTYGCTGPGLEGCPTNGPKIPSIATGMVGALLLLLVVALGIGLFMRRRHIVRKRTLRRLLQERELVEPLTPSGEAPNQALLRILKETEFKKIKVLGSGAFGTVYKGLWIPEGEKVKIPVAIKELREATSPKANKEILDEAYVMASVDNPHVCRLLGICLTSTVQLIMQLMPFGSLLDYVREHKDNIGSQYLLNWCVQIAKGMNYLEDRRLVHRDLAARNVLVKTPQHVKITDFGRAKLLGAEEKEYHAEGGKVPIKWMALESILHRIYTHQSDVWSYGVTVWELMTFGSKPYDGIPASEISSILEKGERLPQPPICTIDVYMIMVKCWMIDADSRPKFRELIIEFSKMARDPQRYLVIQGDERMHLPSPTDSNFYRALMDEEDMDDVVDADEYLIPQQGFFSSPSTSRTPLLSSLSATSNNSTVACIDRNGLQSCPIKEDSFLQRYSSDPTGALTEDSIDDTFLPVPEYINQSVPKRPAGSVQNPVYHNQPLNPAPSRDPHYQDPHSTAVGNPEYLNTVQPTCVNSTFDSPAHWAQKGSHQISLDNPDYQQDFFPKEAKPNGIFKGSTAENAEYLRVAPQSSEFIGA

Take `CS(=O)(=O)N1CCc2cccc(Nc3nc(Nc4ccc(N5CCC(N6CCN(CCc7ccc(C8CCC(=O)NC8=O)c(F)c7)CC6)CC5)c(F)c4)nc4[nH]ccc34)c21` (centres unmarked) [Example 3, 3-(2-fluoro-4-(2-(4-(1-(2-fluoro-4-((4-((1-(methylsulfonyl)indolin-7-yl)amino)-7H-pyrrolo[2,3-d]pyrimidin-2-yl)amino)phenyl)piperidin-4-yl)piperazin-1-yl)ethyl)phenyl)piperidine-2,6-dione]: the DC50 on EGFR [1] is 9.5 nM; at EGFR [2] it was 19.8 nM; in the assay with EGFR DTC it was 11.6 nM; on EGFR LTC, 19.9 nM.
For the compound `CS(=O)(=O)N1CCc2cccc(Nc3nc(Nc4ccc(N5CCC(N6CCN(CCC7CCN(c8ccc(C9CCC(=O)NC9=O)cc8)CC7)CC6)CC5)c(F)c4)nc4[nH]ccc34)c21` (centres unmarked) [Example 8, 3-(4-(4-(2-(4-(1-(2-fluoro-4-((4-((1-(methylsulfonyl)indolin-7-yl)amino)-7H-pyrrolo[2,3-d]pyrimidin-2-yl)amino)phenyl)piperidin-4-yl)piperazin-1-yl)ethyl)piperidin-1-yl)phenyl)piperidine-2,6-dione], the DC50 at EGFR [1] turned out to be 9.1 nM; on EGFR [2], 12.7 nM; in the assay with EGFR DTC, 13.4 nM; at EGFR LTC, 8.4 nM.

Values taken from patent US12643903B2, “Bifunctional compounds for degradation of EGFR and related methods of use” (BeiGene, Ltd., priority 2020, dated 2026).
